Patent publication US20240317780A1, “RADIOPHARMACEUTICAL SOMATOSTATIN RECEPTOR LIGANDS AND PRECURSORS THEREOF” (Technische Universität München, priority 2021, published 2024)
Where a SMILES comes first, the peptide text is derived from it. Bridges are numbered along the chain shown (N, C = ends). [ ]: non-standard residue; d: D form. The star is where a group is joined. ξ: configuration not given here. Benzoyl(4-SiFtBu2) = CC(C)(C)[Si](F)(c1ccc(C(=O)*)cc1)C(C)(C)C; X1 = CC(C)(C)[Si](F)(c1ccc(C[N+](C)(C)CC(=O)*)cc1)C(C)(C)C; DO3AM = NC(=O)CN1CCN(CC(N)=O)CCN(CC(=O)*)CCN(CC(N)=O)CC1; ξW = NC(Cc1c[nH]c2ccccc12)C(=O)O; dDap = NC[C@@H](N)C(=O)O; ξF = NC(Cc1ccccc1)C(=O)O; ξD = NC(CC(=O)O)C(=O)O; ξDap = NCC(N)C(=O)O; ξC = NC(CS)C(=O)O

Columns and labels:
SST2 = molecular target: T1, SST2 (Homo sapiens, UniProt P30874); assay: Determination of IC50: competitive binding against [125I]TOC on SST2-transfected CHO cells; details: [125I]TOC reference radioligand, 60 min room temperature
T1 construct: expressed in transfected cells; host or cells: CHO (Chinese hamster ovary) cells

[1] = Octanol-water distribution coefficient (logD pH 7.4) of the labeled tracer; type: physicochemical; details: n-octanol/PBS pH 7.4, room temperature
Method: Approximately 1 MBq of the labeled tracer was dissolved in 1 mL of a 1:1 mixture (by volumes) of phosphate buffered saline (PBS, pH 7.4) and n-octanol in an Eppendorf tube. After vigorous mixing of the suspension for 3 minutes at room temperature, the vial was centrifuged at 15000 g for 5 minutes (Biofuge 15, Heraus Sepatech, Osterode, Germany) and 100 μL aliquots of both layers were measured in a gamma counter. The experiment was repeated at least six times.

HSA = HSA (Homo sapiens, UniProt P02768); assay: HSA binding by RIAC method (gel filtration, apparent molecular weight); type: in vitro ADME; details: HSA binding as apparent molecular weight, 700 μM HSA in PBS mobile phase
Method: A gel filtration column Superdex 75 Increase 10/300 GL (GE Healthcare, Uppsala, Sweden) was beforehand calibrated following the producer's recommendations with a commercially available gel filtration calibration kit (GE Healthcare, Buckinghamshire, UK) comprising conalbumin (MW: 75 kDa), ovalbumin (44 kDa), carbonic anhydrase (29 kDa), ribonuclease A (13.7 kDa) and aprotinin (6.5 kDa) as reference proteins of known molecular weight. AMSEC experiments were conducted using a constant flow rate of 0.8 mL/min at rt. A solution of HSA in PBS at physiological concentration (700 μM) was used as the mobile phase. SST2 ligands were labelled as described with molar activities of 10-20 GBq/μmol. Probes of 1.0 MBq of the radioligand were injected directly from the labelling solution. HSA binding was expressed as an apparent molecular weight MW calculated from the retention time of the radioligand using the determined calibration curve.
For evaluation, experimentally determined retention times tR are first converted into elution volumes Ve by multiplying with the flow rate and thereafter converted into partition coefficients Kav following the equation
where V0 is the column void volume (8.027 mL) and Vc is the geometric column volume (24 mL). Using the equation given by the trend line plot of the column calibration
the apparent molecular weight MW is calculated as […]

T1 sequence (P30874 whole entry, species assumed): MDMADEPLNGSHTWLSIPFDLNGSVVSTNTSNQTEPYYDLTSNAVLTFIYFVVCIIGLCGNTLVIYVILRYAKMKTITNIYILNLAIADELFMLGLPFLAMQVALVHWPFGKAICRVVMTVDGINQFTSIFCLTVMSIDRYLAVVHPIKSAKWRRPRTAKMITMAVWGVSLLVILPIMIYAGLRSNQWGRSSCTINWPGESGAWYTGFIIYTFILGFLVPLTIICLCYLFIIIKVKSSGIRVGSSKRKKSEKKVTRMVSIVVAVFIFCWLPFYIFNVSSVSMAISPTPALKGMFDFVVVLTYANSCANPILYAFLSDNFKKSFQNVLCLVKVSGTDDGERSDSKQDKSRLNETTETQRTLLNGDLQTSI
HSA, sequence (P02768 25-609): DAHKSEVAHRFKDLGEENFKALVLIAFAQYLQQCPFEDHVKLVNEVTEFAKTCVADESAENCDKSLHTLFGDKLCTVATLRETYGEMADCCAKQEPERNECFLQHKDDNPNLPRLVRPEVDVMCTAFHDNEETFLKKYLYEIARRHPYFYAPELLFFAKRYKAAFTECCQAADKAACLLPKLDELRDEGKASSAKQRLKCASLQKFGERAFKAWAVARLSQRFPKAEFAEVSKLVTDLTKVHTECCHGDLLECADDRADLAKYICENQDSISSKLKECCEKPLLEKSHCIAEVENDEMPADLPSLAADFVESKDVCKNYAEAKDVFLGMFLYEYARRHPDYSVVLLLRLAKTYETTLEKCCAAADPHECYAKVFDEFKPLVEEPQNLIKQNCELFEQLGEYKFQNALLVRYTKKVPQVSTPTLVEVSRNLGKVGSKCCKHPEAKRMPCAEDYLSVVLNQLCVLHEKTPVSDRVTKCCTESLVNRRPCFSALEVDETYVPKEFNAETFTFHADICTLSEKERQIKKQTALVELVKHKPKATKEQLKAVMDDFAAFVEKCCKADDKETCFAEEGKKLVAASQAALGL

Row | SMILES | IC50 (SST2) [nM] | LogDpH=7.4 [1] | HSA (HSA) [kDa] | LogDpH=7.4 ([1]; listed as 36)
1 | C[C@@H](O)[C@H](NC(=O)C1CSSCC(NC(=O)C(Cc2ccccc2)NC(=O)CNC(=O)CNC(=O)[C@@H](CC(=O)O)NC(=O)C(CC(=O)O)NC(=O)[C@@H](CNC(=O)CN2CCN(CC(=O)O)CCN(CC(=O)O)CCN(CC(=O)O)CC2)NC(=O)c2ccc([Si](F)(C(C)(C)C)C(C)(C)C)cc2)C(=O)N[C@@H](Cc2ccc(O)cc2)C(=O)NC(Cc2c[nH]c3ccccc23)C(=O)N[C@@H](CCCCN)C(=O)N[C@@H]([C@@H](C)O)C(=O)N1)C(=O)O (stereo partly shown) (natGa complex, metal not drawn) [[Ga]9] | 63.3 ± 1.75 | −2.02 ± 0.04 |  | 
2 | C[C@@H](O)[C@H](NC(=O)C1CSSCC(NC(=O)C(Cc2ccccc2)NC(=O)COCCOCCNC(=O)C(CC(=O)O)NC(=O)[C@@H](CC(=O)O)NC(=O)C(CNC(=O)CN2CCN(CC(=O)O)CCN(CC(=O)O)CCN(CC(=O)O)CC2)NC(=O)[C@@H](CN)NC(=O)c2ccc([Si](F)(C(C)(C)C)C(C)(C)C)cc2)C(=O)N[C@@H](Cc2ccc(O)cc2)C(=O)NC(Cc2c[nH]c3ccccc23)C(=O)N[C@@H](CCCCN)C(=O)N[C@@H]([C@@H](C)O)C(=O)N1)C(=O)O (stereo partly shown) (natGa complex, metal not drawn) [[Ga]23] |  | −1.86 ± 0.06 | 18.59 | 
3 | CC(O)C(NC(=O)C1CSSCC(NC(=O)C(Cc2ccccc2)NC(=O)CNC(=O)CNC(=O)CNC(=O)[C@@H](CCCN)NC(=O)[C@@H](CCCN)NC(=O)C(CNC(=O)CN2CCN(CC(=O)O)CCN(CC(=O)O)CCN(CC(=O)O)CC2)NC(=O)C[N+](C)(C)Cc2ccc([Si](F)(C(C)(C)C)C(C)(C)C)cc2)C(=O)N[C@@H](Cc2ccc(O)cc2)C(=O)NC(Cc2c[nH]c3ccccc23)C(=O)N[C@@H](CCCCN)C(=O)N[C@@H]([C@@H](C)O)C(=O)N1)C(=O)O (stereo partly shown) (natGa complex, metal not drawn) [[Ga]55] | 4.1 ± 0.54 | −1.69 ± 0.04 |  | 
4 | CC(O)C(NC(=O)C1CSSCC(NC(=O)C(Cc2ccccc2)NC(=O)CNC(=O)CNC(=O)CNC(=O)C(CC(N)=O)NC(=O)[C@@H](CC(N)=O)NC(=O)C(CNC(=O)CN2CCN(CC(=O)O)CCN(CC(=O)O)CCN(CC(=O)O)CC2)NC(=O)C[N+](C)(C)Cc2ccc([Si](F)(C(C)(C)C)C(C)(C)C)cc2)C(=O)N[C@@H](Cc2ccc(O)cc2)C(=O)NC(Cc2c[nH]c3ccccc23)C(=O)N[C@@H](CCCCN)C(=O)N[C@@H]([C@@H](C)O)C(=O)N1)C(=O)O (stereo partly shown) (natGa complex, metal not drawn) [[Ga]56] | 4 ± 0.34 | −1.51 ± 0.03 |  | 
5 | C[C@@H](O)[C@H](NC(=O)C1CSSCC(NC(=O)C(Cc2ccccc2)NC(=O)CNC(=O)CNC(=O)CNC(=O)C(CC(=O)O)NC(=O)[C@@H](CC(=O)O)NC(=O)C(CCCCN)NC(=O)[C@@H](CNC(=O)CN2CCN(CC(=O)O)CCN(CC(=O)O)CCN(CC(=O)O)CC2)NC(=O)C[N+](C)(C)Cc2ccc([Si](F)(C(C)(C)C)C(C)(C)C)cc2)C(=O)N[C@@H](Cc2ccc(O)cc2)C(=O)NC(Cc2c[nH]c3ccccc23)C(=O)N[C@@H](CCCCN)C(=O)N[C@@H]([C@@H](C)O)C(=O)N1)C(=O)O (stereo partly shown) (natGa complex, metal not drawn) [[Ga]57] | 4.74 ± 0.22 | −2.25 ± 0.14 |  | 
6 | C[C@@H](O)[C@H](NC(=O)C1CSSCC(NC(=O)C(Cc2ccccc2)NC(=O)CNC(=O)CNC(=O)CNC(=O)C(CC(=O)O)NC(=O)[C@@H](CC(=O)O)NC(=O)C(CCCNC(N)=O)NC(=O)[C@@H](CNC(=O)CN2CCN(CC(=O)O)CCN(CC(=O)O)CCN(CC(=O)O)CC2)NC(=O)C[N+](C)(C)Cc2ccc([Si](F)(C(C)(C)C)C(C)(C)C)cc2)C(=O)N[C@@H](Cc2ccc(O)cc2)C(=O)NC(Cc2c[nH]c3ccccc23)C(=O)N[C@@H](CCCCN)C(=O)N[C@@H]([C@@H](C)O)C(=O)N1)C(=O)O (stereo partly shown) (natGa complex, metal not drawn) [[Ga]58] | 4.41 ± 0.81 | −2.31 ± 0.04 |  | 
7 | C[C@@H](O)[C@@H]1NC(=O)[C@H](CCCCN)NC(=O)C(Cc2ccc(NC(N)=O)cc2)NC(=O)[C@H](Cc2ccc(NC(=O)C3CC(=O)NC(=O)N3)cc2)NC(=O)[C@H](NC(=O)[C@H](Cc2ccc(Cl)cc2)NC(=O)CNC(=O)CNC(=O)CNC(=O)C(CC(=O)O)NC(=O)[C@@H](CC(N)=O)NC(=O)C(CNC(=O)CN2CCN(CC(=O)O)CCN(CC(=O)O)CCN(CC(=O)O)CC2)NC(=O)C[N+](C)(C)Cc2ccc([Si](F)(C(C)(C)C)C(C)(C)C)cc2)CSSCC(C(=O)NC(Cc2ccc(O)cc2)C(N)=O)NC1=O (stereo partly shown) (natGa complex, metal not drawn) [[Ga]59] | 23.7 ± 1.5 | −2.14 ± 0.03 |  | 
8 | C[C@@H](O)[C@H](NC(=O)C1CSSCC(NC(=O)C(Cc2ccccc2)NC(=O)CNC(=O)CNC(=O)CNC(=O)C(CC(=O)O)NC(=O)[C@@H](CC(=O)O)NC(=O)C(CNC(=O)CN2CCN(CC(=O)O)CCN(CC(=O)O)CCN(CC(=O)O)CC2)NC(=O)CNC(=O)C[N+](C)(C)Cc2ccc([Si](F)(C(C)(C)C)C(C)(C)C)cc2)C(=O)N[C@@H](Cc2ccc(O)cc2)C(=O)NC(Cc2c[nH]c3ccccc23)C(=O)N[C@@H](CCCCN)C(=O)N[C@@H]([C@@H](C)O)C(=O)N1)C(=O)O (stereo partly shown) (natGa complex, metal not drawn) [[Ga]60] | 4.15 ± 0.79 | −2.24 ± 0.05 |  | 
9 | C[C@@H](O)[C@H](NC(=O)C1CSSCC(NC(=O)C(Cc2ccccc2)NC(=O)CNC(=O)CNC(=O)[C@@H](CC(=O)O)NC(=O)C(CC(=O)O)NC(=O)[C@@H](CNC(=O)CN2CCN(CC(N)=O)CCN(CC(N)=O)CCN(CC(N)=O)CC2)NC(=O)C(CN)NC(=O)c2ccc([Si](F)(C(C)(C)C)C(C)(C)C)cc2)C(=O)N[C@@H](Cc2ccc(O)cc2)C(=O)NC(Cc2c[nH]c3ccccc23)C(=O)N[C@@H](CCCCN)C(=O)N[C@@H]([C@@H](C)O)C(=O)N1)C(=O)O (stereo partly shown) [Ligand 36] ({Benzoyl(4-SiFtBu2)}-[ξDap][dDap](DO3AM)[ξD][dD]GG[ξF][ξC]Y[ξW]KT[ξC]T-OH; disulfide 8-13) | 7.05 ± 1.61 |  |  | −1.41 ± 0.07
10 | C[C@@H](O)[C@H](NC(=O)C1CSSCC(NC(=O)C(Cc2ccccc2)NC(=O)CNC(=O)CNC(=O)[C@@H](CC(=O)O)NC(=O)C(CC(=O)O)NC(=O)[C@@H](CNC(=O)CN2CCN(CC(=O)O)CCN(CC(=O)O)CCN(CC(=O)O)CC2)NC(=O)C(CN)NC(=O)c2ccc([Si](F)(C(C)(C)C)C(C)(C)C)cc2)C(=O)N[C@@H](Cc2ccc(O)cc2)C(=O)NC(Cc2c[nH]c3ccccc23)C(=O)N[C@@H](CCCCN)C(=O)N[C@@H]([C@@H](C)O)C(=O)N1)C(=O)O (stereo partly shown) [[Ga]19] |  | −2.11 ± 0.04 | 21.17 | 
11 | C[C@@H](O)[C@H](NC(=O)C1CSSCC(NC(=O)C(Cc2ccccc2)NC(=O)CNC(=O)CNC(=O)[C@@H](CC(=O)O)NC(=O)C(CC(=O)O)NC(=O)[C@@H](CNC(=O)CC[C@H](C(=O)O)N2CCN(CC(=O)O)CCN(CC(=O)O)CCN(CC(=O)O)CC2)NC(=O)C(CN)NC(=O)c2ccc([Si](F)(C(C)(C)C)C(C)(C)C)cc2)C(=O)N[C@@H](Cc2ccc(O)cc2)C(=O)NC(Cc2c[nH]c3ccccc23)C(=O)N[C@@H](CCCCN)C(=O)N[C@@H]([C@@H](C)O)C(=O)N1)C(=O)O (stereo partly shown) [[Ga]20] |  | −2.16 ± 0.04 | 21.49 | 
12 | C[C@@H](O)[C@H](NC(=O)C1CSSCC(NC(=O)C(Cc2ccccc2)NC(=O)CNC(=O)CNC(=O)[C@@H](CC(=O)O)NC(=O)C(CC(=O)O)NC(=O)[C@@H](CNC(=O)CN2CCN(CC(=O)O)CCN(CC(=O)O)CCN(CC(=O)O)CC2)NC(=O)C[N+](C)(C)Cc2ccc([Si](F)(C(C)(C)C)C(C)(C)C)cc2)C(=O)N[C@@H](Cc2ccc(O)cc2)C(=O)NC(Cc2c[nH]c3ccccc23)C(=O)N[C@@H](CCCCN)C(=O)N[C@@H]([C@@H](C)O)C(=O)N1)C(=O)O (stereo partly shown) [[Ga]24] |  | −1.92 ± 0.03 | 8.77 | 
13 | C[C@@H](O)[C@H](NC(=O)C1CSSCC(NC(=O)C(Cc2ccccc2)NC(=O)CNC(=O)CNC(=O)CNC(=O)C(CC(=O)O)NC(=O)[C@@H](CC(=O)O)NC(=O)C(CNC(=O)C[N+](C)(C)Cc2ccc([Si](F)(C(C)(C)C)C(C)(C)C)cc2)NC(=O)CN2CCN(CC(=O)O)CCN(CC(=O)O)CCN(CC(=O)O)CC2)C(=O)N[C@@H](Cc2ccc(O)cc2)C(=O)NC(Cc2c[nH]c3ccccc23)C(=O)N[C@@H](CCCCN)C(=O)N[C@@H]([C@@H](C)O)C(=O)N1)C(=O)O (stereo partly shown) [[Ga]44] |  | −2.06 ± 0.08 | 6.99 | 
14 | C[C@@H](O)[C@H](NC(=O)C1CSSCC(NC(=O)C(Cc2ccccc2)NC(=O)CNC(=O)CNC(=O)CNC(=O)C(CC(=O)O)NC(=O)[C@@H](CC(=O)O)NC(=O)C(CNC(=O)CN2CCN(CC(N)=O)CCN(CC(N)=O)CCN(CC(N)=O)CC2)NC(=O)C[N+](C)(C)Cc2ccc([Si](F)(C(C)(C)C)C(C)(C)C)cc2)C(=O)N[C@@H](Cc2ccc(O)cc2)C(=O)NC(Cc2c[nH]c3ccccc23)C(=O)N[C@@H](CCCCN)C(=O)N[C@@H]([C@@H](C)O)C(=O)N1)C(=O)O (stereo partly shown) [[Pb]54] (X1-[ξDap](DO3AM)[dD][ξD]GGG[ξF][ξC]Y[ξW]KT[ξC]T-OH; disulfide 8-13) | 4.24 ± 0.68 | −1.86 ± 0.04 |  | 
